{"source": "paper PMC3649849", "about": "(Journal of the American Chemical Society, 2013)", "key": {"[1]": {"target": "wildtype TbbTIM (triosephosphate isomerase) (Trypanosoma brucei brucei, UniProt P04789)", "test": "Competitive inhibition of TIM-catalyzed isomerization of GAP by phosphoglycolate", "assay_type": "biochemical", "conditions": "relative to 14 kcal/mol estimated for GAP"}, "[2]": {"system": "I172A mutant TbbTIM", "test": "Competitive inhibition of TIM-catalyzed isomerization of GAP by phosphoglycolate", "assay_type": "biochemical, Trypanosoma brucei brucei", "conditions": "pH < 6"}, "[3]": {"conditions": "I = 0.05 (KCl); cited from earlier work"}, "[4]": {"target": "L232A mutant TbbTIM (Trypanosoma brucei brucei, UniProt P04789, L232A)", "test": "Competitive inhibition of TIM-catalyzed isomerization of GAP by phosphoglycolate", "assay_type": "biochemical"}}}
{"smiles": "O=C(O)COP(=O)(O)O", "note": "[PGA, Phosphoglycolate]", "values": [{"measurement": "fraction of the total intrinsic transition state binding energy for TIM expressed", "setting": "[1]", "value": "~ 80%"}, {"measurement": "fold lower affinity of the mutant compared with the wildtype enzyme for I^3−", "setting": "[2]", "value": 100, "unit": "fold"}, {"measurement": "pKa for ionization of HI^2− to form I^3−", "setting": "[3]", "value": 6.5}, {"measurement": "fold increase in the affinity of the enzyme for I^3− from the L232A mutation", "setting": "[4]; pH 8.3, relative to wildtype", "value": 20, "unit": "fold"}, {"measurement": "Ki", "setting": "[4]; read-out: Ki for inhibition by PGA trianion I^3−, pH 8.3, 25 °C, I = 0.1 (NaCl)", "value": 12, "unit": "µM"}]}
